# Columns and labels:
# [1] = test system: IL-6 induced STAT3 phosphorylation; assay: Test for inhibitory activity against STAT3 phosphorylation induced by IL-6 (Western blot, HepG2); assay type: cell-based, human; conditions: HepG2, 1, 3, 10, 30, 100 ug/ml, 10 ng/ml IL-6 (FIG. 4)
# Description: HepG2 cells were divisionally inoculated in 6-well plate in the ratio of 5×10^4 cells/well, and grown to be 80% confluent. After changing to a serum-free medium and incubating for 6 hours, cells were pre-treated with the samples for one hour. […] Then the mixture was centrifuged (13,000×g, 15 minutes) to obtain a lysate as the supernatant. Herein, HepG2 cells not treated with IL-6 and the samples were used as the control group. The concentration of proteins was quantified by means of Bio-Rad DC protein assay kit, and the protein was loaded on 10% SDS-polyacrylamide gel (SDS-PAGE) and electrophoresed at 30 mA for 2 hours. After completion of the electrophoresis, the protein on gel was transcribed into PVDF membrane (Westran® S, pore size […]) at 90V for 90 minutes, and the transcribed membrane was blocked with Tris-buffered solution (T-TBS; 50 mM Tri-HCl, pH 7.6, 150 mM NaCl, 0.2% Tween-20, 5% skim milk) at 4° C. for 12 hours, and washed five time with T-TBS. The membrane was treated with polyclonal antibodies of phospho-STAT3 (1:1000 dilutions, respectively) as the primary antibody for 2 hours. After washing five times with T-TBS, the membrane was reacted with HRP-conjugated anti-rabbit antibody (1:5000 dilutions) as the secondary antibody for one hour. After washing with T-TBS, the film was developed in the dark room by means of ECL.
# [2] = test system: IL-6 reactive STAT3 reporter gene; assay: IL-6 reactive STAT3 reporter gene test (pSTAT3-TA-Luc6 luciferase) in HepG2 cells; assay type: cell-based; conditions: Homo sapiens
# Description: A pSTAT3-TA-Luc6 construct, which comprises 8 more STAT3 DNA binding sequence copies as compared to pSTAT-3-TA-Luc and thus, enables to better reflect STAT3 reporter gene assay, was prepared. STAT3 DNA binding sequence was amplified using pSTAT3-TA-Luc plasmid (Clontech, Palo Alto, Calif.) as the template, and oligonucleotide ([…]. SEQ ID NO: 1 (containing Kpn I site)) and oligonucleotide ([…] GAAGCAACGTTC (containing Xho I site)) as forward primer and reverse primer, respectively, by means of a thermocycler. The amplified PCR product was cloned, separated, and then inserted into Kpn I/Xho I site of pSTAT3-TA-Luc plasmid.
# Human hepatoma cell line, HepG2 cell, was incubated in MEM (Minimal Essential Medium, WelGENE Inc, Daegu, Korea) medium under water-saturated condition at 37° C., 5% CO2. To this medium was added 10% (v/v) fetal bovine serum, streptomycin (100 U/mL) and penicillin (100 U/mL). 6-Well cell culture plate was allowed to grow cells up to 80%, and then the specimen was pre-treated for one hour. Then, the medium was changed into 50 μL of serum-free medium, and the mixed solution of 0.1 μL pSTAT3-TA-Luc6 construct and 0.3 μL lipofectamin reagent was added to each well and then allowed to react for 3 hours to transfect cells with pSTAT3-TA-Luc6 construct. The medium was changed to a fresh medium, and the plate was incubated for 24 hours to transiently transfect cells. The transfected cells were serum-starved with 1% BSA/DMEM, and treated with the samples for one hour and then, after adding IL-6, incubated for 3 hours. The mixture was washed with PBS, shaken for one minute with addition of 50 μL of lysis buffer (promega luciferase assay system). After adding 30-100 μL of luciferase substrate (Promega luciferase assay system), the mixture was measured by a luminometer within 5 minutes.
# Among others Compounds 1 and 3 as the materials having high inhibitory effect on IL-6 activity were used at various concentration to measure the degree of inhibitory effect, and the results thereof are as shown in FIGS. 2 and 3.
smiles,measurement,setting,value
"CCc1ccc(Nc2nc3cc(NC(=O)c4ccccc4)ccc3o2)cc1 [Compound 3, N-(2-(4-ethylphenylamino)benzo[d]oxazol-5-yl)benzamide]",Inhibitory activity on IL-6 induced STAT3 phosphorylation,[1],inhibited IL-6 expression in a concentration-dependent manner
same,IC50,"[2]; HepG2, read-out: IC50 of IL-6 inhibitory activity (STAT3 reporter gene)",5.8 µM
same,inhibition at 20 µg/mL,"[2]; HepG2, read-out: Inhibition % of IL-6 reactive STAT3 reporter gene activity, 20 ug/ml of sample, HepG2 cells",> 80%

# Source: US8614240B2, “Benzoxazole derivatives having inhibitory activity against interleukin-6, preparation method thereof, and pharmaceutical composition containing the same” (EWHA University-Industry Collaboration Foundation, priority 2010, dated 2013)
